Results published in patent publication US20230303613A1, “3′3′ CYCLIC DINUCLEOTIDES WITH AN ALKENYLENE” (Institute of Organic Chemistry and Biochemistry AS CR, v.v.i, priority 2020, published 2023).
Read-outs that look alike come from different tables or passages of the source.

Legend:
[1] = molecular target: T1, AQ STING (G230A-R293Q) (Homo sapiens, UniProt Q86WV6, G230A/H232R/R293Q); experiment: Differential Scanning Fluorimetry with AQ STING; format: binding; conditions: thermal shift vs apoprotein; 150 µM CDN; truncated human AQ STING 0.1 mg/ml; read-out: DSF ΔTm AQ STING
T1 construct: 8xHis (N, cleaved yes); SUMO (N, cleaved yes); made in house; host or cells: E. coli Rosetta-gami B (DE3)
T1 sequence (Q86WV6 140-343 G230A/H232R/R293Q): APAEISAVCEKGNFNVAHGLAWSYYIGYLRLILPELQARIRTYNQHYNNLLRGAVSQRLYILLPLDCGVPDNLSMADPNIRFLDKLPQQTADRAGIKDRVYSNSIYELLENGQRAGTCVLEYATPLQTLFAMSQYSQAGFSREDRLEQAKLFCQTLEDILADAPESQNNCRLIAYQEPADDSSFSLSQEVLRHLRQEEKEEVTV
Text: (§1) Purified PCR products were cleaved with restriction enzymes BamHI (cat. # R0136S, NEB, Ipswich, USA) and NotI (cat. # R0189S, NEB, Ipswich, USA) and cloned into the pSUMO vector linearized with the identical enzymes.
(§2) Bacterial pellets were re-suspended in ice-cold lysis buffer containing 50 mmol.1^-1 TrisCl (cat. # T1503, Sigma Aldrich, Czech Republic) pH 8.0, 300 mmol.1^-1 NaCl, 3 mmol.1^-1 β-mercaptoethanol (cat. # M6250, Sigma Aldrich, Czech Republic), 10% glycerol (cat. # G5516, Sigma Aldrich, Czech Republic) and 20 mmol.1^-1 imidazole (cat. # I5513, Sigma Aldrich, Czech Republic) using Dounce homogenizer. DNase I (cat. # D5025, Sigma Aldrich, Czech Republic) and RNase A (cat. # R6513, Sigma Aldrich, Czech Republic) were added (final concentration 50 µg/ml) together with MgCl2 (final concentration 5 mmol.l^-1) to the homogenate and bacteria were lysed using French Press G-M™ High-Pressure Cell Press Homogenizer (1500 psi, 3 cycles). […] The resin was poured into a chromatography column, washed with 50 ml buffer A (50 mmol.1^-1 TrisCl (pH 8.0), 800 mmol.1^-1 NaCl, 3 mmol.1^-1 β-mercaptol; 10% glycerol; 20 mmol.1^-1 imidazole) and 8-His-SUMO tagged STING proteins were eluted with 15 ml buffer A containing 300 mmol.1^-1 imidazole. […] Proteins were concentrated with Amicon® Ultra-15 10 K device (cat. # UFC901008, Merck Millipore, Billerica, USA) and flash frozen in liquid N2.
(§3) 20 µL solutions of the reaction mixtures were pipetted in triplicates into 96 well optical reaction plates and thermal denaturation of samples were performed on real time PCR cycler (LightCycler® 480 Instrument II - Roche, Basel, Switzerland). The first derivative of the thermal denaturation curves was performed to calculate denaturing temperatures of STING - CDN complexes and STING apoproteins. The thermal shift for each CDN was calculated by subtracting the average denaturing temperature of STING apoprotein from the average denaturing temperature of STING CDN complex.

[2] = molecular target: T2, WT STING (Homo sapiens, UniProt Q86WV6, H232R); experiment: Digitonin assay using 293T wtSTING-FL reporter cells; format: cell-based; conditions: 293T wtSTING-FL cells; 30 minutes in Digitonin buffer, then 5 hours; ISRE firefly luciferase reporter
Text: Two complementary oligonucleotides of the sequence […] […] […] […] […] The oligonucleotides were mixed in equal molar amounts, hybridized, and cleaved by restriction endonucleases HindIII (cat. #. R0104S, NEB, Ipswich, USA) and BglII (cat. # R0144S, NEB, Ipswich, USA). Ultimately, they were ligated into plasmid pGL4.27 (cat. # E6651, Promega, Madison, USA) linearized with the same enzymes. As result the sequence with four ISRE sites was placed upstream of the minimum promoter of firefly luciferase reporter gene.
After 5 minutes incubation at room temperature (RT), 250 µL of the mixture was added dropwise to the cells in one well. Cells were incubated 36 hours at 37° C. with 5% CO2, and then detached with 0.05% Trypsin and 0.22 g/L EDTA (both cat. # L0941, Biowest, Riverside, USA).
Transfected cells were seeded onto poly-D-lysine coated six well plates at density 50,000 cells per 1 cm^2 in DMEM medium with high glucose containing 10% heat inactivated FBS, 30 µg/mL blasticidin (cat. # ant-bl-05, InvivoGen, San Diego, USA), 0.06 mg/ml Penicillin G and 0.1 mg/ml Streptomycin Sulfate (both cat. #. L0018, Biowest, Riverside, USA). The medium was replenished every 3 - 4 days until visible colonies of cells resistant to blasticidin were formed.
Blasticidin resistant cells stably expressing WT STING were further transfected with […] plasmid following the same procedure as described above. […] Homogeneous culture of stably double transfected cells was prepared by limiting dilution of cells in 96 well plates and wells with cells were selected that originated from a single cell.
The medium was removed next day and three fold serial dilutions of compounds in Digitonin buffer containing 50 mmol.l^-1 HEPES (cat. # H3375, Sigma Aldrich, Czech Republic) pH 7.0, 100 mmol.1^-1 KCl, 3 mmol.l^-1 MgCl2, 0.1 mmol.l^-1 DTT (cat. # D0632, Sigma Aldrich, Czech Republic), 85 mmol.1^-1 Sucrose (cat. # S7903, Sigma Aldrich, Czech Republic), 0.2% BSA (cat. # A2153, Sigma Aldrich, Czech Republic), 1 mmol.l^-1 ATP (cat. # A1852, Sigma Aldrich, Czech Republic), 0.1 mmol.1^-1 GTP (cat. # G8877, Sigma Aldrich, Czech Republic), and 10 µg/mL Digitonin A (cat. # D141, Sigma Aldrich, Czech Republic) were added to the cells. The buffer was removed after 30 minutes incubation at 37° C. with 5% CO2, the cells were washed once with 100 µl of cultivation medium, and 100 µl of medium was added to each well. The plates with cells were incubated for 5 hours at 37° C. with 5% CO2, 50µl of the medium was removed and 30 µl of ONE-Glo^Tm Luciferase Assay System reagent (cat. # E6120, Promega, Madison, USA) was added to each well. Luminescence was read on Synergy H1 (Biotek, Winooski, USA).
Target sequence in this assay (Q86WV6 whole entry H232R): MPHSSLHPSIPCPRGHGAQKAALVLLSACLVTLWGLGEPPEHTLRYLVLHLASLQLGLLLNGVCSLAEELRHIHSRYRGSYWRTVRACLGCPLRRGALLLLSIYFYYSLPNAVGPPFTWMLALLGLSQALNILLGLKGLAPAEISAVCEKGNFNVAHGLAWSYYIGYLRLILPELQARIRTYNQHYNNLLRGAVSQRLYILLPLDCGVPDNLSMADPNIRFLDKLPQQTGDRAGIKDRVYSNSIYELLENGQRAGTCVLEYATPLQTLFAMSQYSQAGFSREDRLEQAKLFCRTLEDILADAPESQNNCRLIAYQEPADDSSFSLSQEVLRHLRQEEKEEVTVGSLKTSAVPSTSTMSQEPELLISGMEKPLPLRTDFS

[3] = tested on: peripheral blood mononuclear cell (PBMC); experiment: Peripheral blood mononuclear cell assay; format: cell-based; conditions: PBMC, 1h with compound, washed, 15 hour incubation
Procedure: Selected compounds were tested in an in vitro peripheral blood mononuclear cell (PBMC) assay. Freshly isolated PBMCs were seeded into U-shaped shaped 96-well plates at desity 500,000 cells per well in 50 µl of RPMI 1640 medium supplemented with 10% heat inactivated FBS. Serially dilluted tested compounds were added to wells in 50 µl of cultivation medium and cell were incubated with compounds for 1h at 37° C. with 5% CO2. Plates with cells were then spun 500 g for 5 minutes and medium was removed. Cells were washed twice with the cell culture medium by the use of centrifugation and gently resuspended in 100 µl medium without compounds. After 15 hour incubation at 37° C. with 5% CO2, the cell culture medium was collected and the levels of interferon-alpha (INF-α), interferon-gamma (INF-γ) and tumor necrosis factor-alpha (TNF-α) were determined with ProcartaPlex Assays (ThermoFisher, Waltham, USA) and MAGPIX System (Merck KGaA, Darmstadt, Germany).

[4] = molecular target: T2, WT STING; experiment: Differential Scanning Fluorimetry with WT STING; format: binding; parameters: 8xHis (N, cleaved yes); SUMO (N, cleaved yes); made in house; host or cells: E. coli Rosetta-gami B (DE3); conditions: thermal shift vs apoprotein; 150 µM CDN; truncated human WT STING 0.1 mg/ml; read-out: DSF ΔTm WT STING
Text: as §1, §2, §3
Target sequence in this assay (Q86WV6 140-343 H232R): as the sequence (Q86WV6 140-343 G230A/H232R/R293Q) above, with A91G, Q154R counted along it

[5] = molecular target: T2, WT STING; experiment: 293T WT STING standard reporter assay; format: cell-based; conditions: 293T wtSTING-FL cells; 7 hours with compound, no digitonin; ISRE firefly luciferase reporter
Target sequence in this assay (Q86WV6 whole entry H232R): as the sequence (Q86WV6 whole entry H232R) above

ΔTm at 150 µM [1]: 11.6 °C
EC50 [2]: 0.03 µM
ΔTm at 150 µM [4]: 6.9 °C
EC50 [5]: 10.1 µM
Compound: Nc1ncnc2c1ncn2[C@@H]1O[C@@H]2/C=C/P(=O)(O)O[C@H]3[C@@H](F)[C@H](n4cnc5c(N)ncnc54)O[C@@H]3COP(=O)(O)O[C@H]2[C@H]1F [Compound 53]
EC50 ([3]; IFN-α level in medium, read-out: PBMC EC50 IFN-α): 120 µM
EC50 ([3]; IFN-γ level in medium, read-out: PBMC EC50 IFN-γ): 36 µM
EC50 ([3]; TNF-α level in medium, read-out: PBMC EC50 TNF-α): 54 µM
